Reference: patent publication US10463644B2, “Uses of sesquiterpene lactone compounds and their derivatives in drugs preparation” (ACCENDATECH, priority 2013, dated 2019)
Like-named read-outs stand apart in the source and are kept apart here.

Legend:
[1] = tested on: IL-1β secreted by synoviocyte; assay: Content of IL-1β in culture supernatant of synoviocyte of RA model rats given test compound; format: in vivo; settings: rat RA model, dose 30 mg/kg.2d; normal control 0.16 ± 0.034, NaCl 0.49 ± 0.136
Outline: (§1)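 Test article is given to RA rats at 30 mg/kg.2d, and synoviocytes are isolated and cultured. Secreted TNF-α and PGE2 in the culture medium are measured by a shared protocol, while IL-1β release is measured by a different protocol. Comparison groups are saline (NaCl) and normal control rats.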

normal cells = assay: Survival rate of normal cells after test compound is added (flow cytometry, Annexin V-FITC/PI); format: cell-based; settings: 18 h
Outline: (§2)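 Mononuclear cells from fresh or cryopreserved clinical samples, isolated by Ficoll gradient and held in serum-free IMDM (1×10^6/mL), received compound for 18 h. After labelling with marker antibodies (CD34+CD38+ for AML), Annexin V-FITC and PI staining was analysed by flow cytometry.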

cancer stem cells = assay: Survival rate of cancer stem cells after test compound is added (flow cytometry, Annexin V-FITC/PI, clinical specimen); format: cell-based, patient; settings: Homo sapiens, 18 h
Outline: as §2

[2] = tested on: PGE2 secreted by synoviocyte; assay: Content of PGE2 in culture supernatant of synoviocyte of RA model rats given test compound; format: in vivo; settings: rat RA model, dose 30 mg/kg.2d; normal control 8.34 ± 1.29, NaCl 32.44 ± 10.32
Outline: as §1

cancer cells = assay: Survival rate of cancer cells after test compound is added (flow cytometry, Annexin V-FITC/PI, clinical specimen); format: cell-based, patient; settings: Homo sapiens, 18 h, read-out: Survival rate (%) All cells (Stem cells and ordinary cells)
Outline: as §2

[3] = read-out: Survival rate (%) All cells (Stem cells and ordinary cells)
[4] = read-out: Survival rate (%) Stem cells
[5] = Head and neck squamous cell carcinomas

`C=C1C(=O)O[C@@H]2[C@@H]3[C@@H](CC[C@@]3(C)O)C(=C)CC[C@@H]12` [Compound 48] was tested, and the “Content of IL-1β in culture supernatant of synoviocyte (x ± s)” value [1] was 0.38 ± 0.046 ng/mL, the viability at 10 µM (normal cells; [3]) was 92% and the viability at 10 µM (normal cells; [4]) was 91%. It also gave a viability at 20 µM (normal cells; [3]) of 91%, a viability at 20 µM (normal cells; [4]) of 89% and a viability at 10 µM (cancer stem cells; AML) of 47%. It also gave a viability at 20 µM (cancer stem cells; AML) of 38%, a viability at 10 µM (cancer stem cells; Brain glioma) of 52% and a viability at 20 µM (cancer stem cells; Brain glioma) of 43%. For the same molecule, the viability at 10 µM (cancer stem cells; Brain tumor) was 66%, the viability at 20 µM (cancer stem cells; Brain tumor) was 53% and the viability at 10 µM (cancer stem cells; Breast cancer) was 54%. For the same molecule, the viability at 20 µM (cancer stem cells; Breast cancer) was 47%, the viability at 10 µM (cancer stem cells; CLL) was 46% and the viability at 20 µM (cancer stem cells; CLL) was 38%. It also gave a viability at 10 µM (cancer stem cells; CML) of 51%, a viability at 20 µM (cancer stem cells; CML) of 46% and a viability at 10 µM (cancer stem cells; Children hepatoblastoma) of 68%. The viability at 20 µM (cancer stem cells; Children hepatoblastoma) was 56%, the viability at 10 µM (cancer stem cells; Colon adenocarcinoma) was 58% and the viability at 20 µM (cancer stem cells; Colon adenocarcinoma) was 49%. For the same molecule, the viability at 10 µM (cancer stem cells; Colorectal cancer) was 66%, the viability at 20 µM (cancer stem cells; Colorectal cancer) was 55% and the viability at 10 µM (cancer stem cells; Gastric cancer) was 51%. The viability at 20 µM (cancer stem cells; Gastric cancer) was 39%, the viability at 10 µM (cancer stem cells; Gastrointestinal tumor) was 57% and the viability at 20 µM (cancer stem cells; Gastrointestinal tumor) was 52%. The viability at 10 µM (cancer stem cells; Glioma) was 69%, the viability at 20 µM (cancer stem cells; Glioma) was 60% and the viability at 10 µM (cancer stem cells; [5]) was 64%. For the same molecule, the viability at 20 µM (cancer stem cells; [5]) was 58%, the viability at 10 µM (cancer stem cells; Laryngeal cancer) was 63% and the viability at 20 µM (cancer stem cells; Laryngeal cancer) was 55%. For the same molecule, the viability at 10 µM (cancer stem cells; Liver cancer) was 74%, the viability at 20 µM (cancer stem cells; Liver cancer) was 61% and the viability at 10 µM (cancer stem cells; Lung adenocarcinoma) was 67%. It also gave a viability at 20 µM (cancer stem cells; Lung adenocarcinoma) of 55%, a viability at 10 µM (cancer stem cells; Lung cancer) of 61% and a viability at 20 µM (cancer stem cells; Lung cancer) of 54%. The viability at 10 µM (cancer stem cells; Malignant melanoma) was 82%, the viability at 20 µM (cancer stem cells; Malignant melanoma) was 76% and the viability at 10 µM (cancer stem cells; Nasopharynx cancer) was 57%. The viability at 20 µM (cancer stem cells; Nasopharynx cancer) was 48%, the viability at 10 µM (cancer stem cells; Ovarian cancer) was 56% and the viability at 20 µM (cancer stem cells; Ovarian cancer) was 45%. For the same molecule, the viability at 10 µM (cancer stem cells; Pancreatic cancer) was 55%, the viability at 20 µM (cancer stem cells; Pancreatic cancer) was 49% and the viability at 10 µM (cancer stem cells; Prostate cancer) was 62%. For the same molecule, the viability at 20 µM (cancer stem cells; Prostate cancer) was 51%, the viability at 10 µM (cancer stem cells; Retinoblastoma) was 62% and the viability at 20 µM (cancer stem cells; Retinoblastoma) was 54%. For the same molecule, the viability at 10 µM (cancer stem cells; Skin cancer) was 46%, the viability at 20 µM (cancer stem cells; Skin cancer) was 39% and the “Content of PGE2 in culture supernatant of synoviocyte (x ± s)” value [2] was 26.65 ± 2.45 ng/mL. For the same molecule, the viability at 10 µM (cancer cells; AML) was 59%, the viability at 20 µM (cancer cells; AML) was 48% and the viability at 10 µM (cancer cells; Brain glioma) was 66%. For the same molecule, the viability at 20 µM (cancer cells; Brain glioma) was 54%, the viability at 10 µM (cancer cells; Brain tumor) was 78% and the viability at 20 µM (cancer cells; Brain tumor) was 69%. The viability at 10 µM (cancer cells; Breast cancer) was 76%, the viability at 20 µM (cancer cells; Breast cancer) was 58% and the viability at 10 µM (cancer cells; CLL) was 67%. The viability at 20 µM (cancer cells; CLL) was 48%, the viability at 10 µM (cancer cells; CML) was 69% and the viability at 20 µM (cancer cells; CML) was 51%. It also gave a viability at 10 µM (cancer cells; Children hepatoblastoma) of 75%, a viability at 20 µM (cancer cells; Children hepatoblastoma) of 68% and a viability at 10 µM (cancer cells; Colon adenocarcinoma) of 66%. It also gave a viability at 20 µM (cancer cells; Colon adenocarcinoma) of 56%, a viability at 10 µM (cancer cells; Colorectal cancer) of 79% and a viability at 20 µM (cancer cells; Colorectal cancer) of 67%. The viability at 10 µM (cancer cells; Gastric cancer) was 66%, the viability at 20 µM (cancer cells; Gastric cancer) was 48% and the viability at 10 µM (cancer cells; Gastrointestinal tumor) was 73%. For the same molecule, the viability at 20 µM (cancer cells; Gastrointestinal tumor) was 62%, the viability at 10 µM (cancer cells; Glioma) was 78% and the viability at 20 µM (cancer cells; Glioma) was 74%. The viability at 10 µM (cancer cells; [5]) was 73%, the viability at 20 µM (cancer cells; [5]) was 68% and the viability at 10 µM (cancer cells; Laryngeal cancer) was 76%. It also gave a viability at 20 µM (cancer cells; Laryngeal cancer) of 66%, a viability at 10 µM (cancer cells; Liver cancer) of 82% and a viability at 20 µM (cancer cells; Liver cancer) of 73%. The viability at 10 µM (cancer cells; Lung adenocarcinoma) was 77%, the viability at 20 µM (cancer cells; Lung adenocarcinoma) was 64% and the viability at 10 µM (cancer cells; Lung cancer) was 72%. For the same molecule, the viability at 20 µM (cancer cells; Lung cancer) was 67%, the viability at 10 µM (cancer cells; Malignant melanoma) was 88% and the viability at 20 µM (cancer cells; Malignant melanoma) was 86%. The viability at 10 µM (cancer cells; Nasopharynx cancer) was 64%, the viability at 20 µM (cancer cells; Nasopharynx cancer) was 59% and the viability at 10 µM (cancer cells; Ovarian cancer) was 68%. It also gave a viability at 20 µM (cancer cells; Ovarian cancer) of 61%, a viability at 10 µM (cancer cells; Pancreatic cancer) of 68% and a viability at 20 µM (cancer cells; Pancreatic cancer) of 62%. The viability at 10 µM (cancer cells; Prostate cancer) was 75%, the viability at 20 µM (cancer cells; Prostate cancer) was 62% and the viability at 10 µM (cancer cells; Retinoblastoma) was 82%. The viability at 20 µM (cancer cells; Retinoblastoma) was 69%, the viability at 10 µM (cancer cells; Skin cancer) was 62% and the viability at 20 µM (cancer cells; Skin cancer) was 47%.
